# In PMC8778818, “Synthesis, Structural Characterization and Anticancer Activity of New 5-Trifluoromethyl-2-thioxo-thiazolo[4,5-d]pyrimidine Derivatives” (Pharmaceuticals, 2022):
# Legend:
# K-562 = assay: NCI-60 screen, Leukemia K-562; format: cell-based, human; details: K-562, 10^−5 M one dose
# MCF-7/WT = assay: MTT cell viability assay, MCF-7/WT; format: cell-based; details: Homo sapiens, MCF7, 72 h, mean ± SD
# Experimental: (§1) Twelve compounds (2a-e, 3a-d and 4a-c) at a concentration range of 50–5000 μM were tested for their antiproliferative potential against four human cancer cell lines (A375—melanotic melanoma, C32—amelanotic melanoma, DU145—prostate cancer androgen-independent, MCF-7/WT—breast adenocarcinoma) and two normal cell lines: Chinese Hamster Ovary (CHO-K1) and immortalized human keratinocytes from histologically normal skin (HaCaT).
# (§2) To determine the antiproliferative activity of newly synthesized compounds, the following cell lines were used: human melanotic melanoma cell line (A375), human amelanotic melanoma cell line (C32), human breast adenocarcinoma cell line (MCF-7/WT), human prostate cancer androgen-independent (DU145) and two normal cell lines: hamster ovarian (CHO-K1) and immortalized human keratinocytes from histologically normal skin (HaCaT). The cells were obtained from the cell line bank of the Department of Molecular and Cellular Biology, Wroclaw Medical University. A375, C32, MCF-7/WT, DU145 and HaCaT cells were grown in a monolayer cultured in Dulbecco’s Modified Eagle’s Medium (DMEM, Sigma-Aldrich, Poznań, Poland), supplemented with 10% of fetal bovine serum (FBS, Gibco, Paisley, UK) and 1% of antibiotics (penicillin/streptomycin, Sigma-Aldrich) and CHO-K1 were grown in HAM’s F-12 medium (Sigma-Aldrich), supplemented with 10% fetal bovine serum (FBS, Gibco) and 1% of antibiotics (penicillin/streptomycin, Sigma-Aldrich). Cell lines were cultured in the polystyrene flasks 25 or 75 cm^2 (Thermo Fisher Scientific, Waltham, MA, USA), which were stored in 37 °C and 5% CO2 in a humidified 95% atmosphere (SteriCult, Thermo Scientific, Alab). The cell medium was exchanged twice a week. The exponentially growing cells were used throughout the experiments. The cells were rinsed with phosphate-buffered saline (PBS, Sigma-Aldrich) and trypsinized by Trypsin-EDTA 0.25% solution (Sigma-Aldrich).
# (§3) The influence of the compounds was performed in a monolayer culture on cancer and normal cells. Compounds were initially dissolved in DMSO; further dilutions of the compound were performed in Dulbecco’s Modified Eagle’s Medium supplemented with 10% FBS. Compounds were tested in a 50–5000 µM concentration range. In the in vitro experiments, the concentrations of DMSO in the final solution of the compounds were used 0.05%; 0.1%; 0.5%; 1%, respectively.
# (§4) Cell viability was determined using the MTT colorimetric assay. All cell lines were seeded into 96-well plates to a density of 3 × 10^4 cells/well. After 24 h, the culture supernatants were removed and appropriate dilutions of compounds in the culture medium (200 µL/well) were added to the cells’ monolayer cultures and incubated for an additional 72 h. After 72 h of exposition to the compounds and the removal of the culture medium, cell viability was determined by reducing the yellow dye 3-(4,5-dimethyl-2-thiazol)-2,5-diphenyl-2H-tetrazolium bromide (MTT assay, Sigma Saint Louis, MO, USA; In Vitro Toxicology Assay) to a blue formazan product. The absorbance of the resulting solutions in three duplicate experiments was measured at the wavelength of 560 nm in a microplate reader (EnSpire, Perkin Elmer, Kraków, Poland). MTT assay is a colorimetric method that estimates the rate of metabolism in viable cells. Absorbance is directly proportional to the number of viable cells. All the experiments were performed three times and the mean absorbance values were calculated. The methodology for the evaluation of the growth of human cancer and normal cells was described previously. The cell viability in each group was expressed as a percentage of control (untreated) cells.
# C32 = assay: MTT cell viability assay, C32; format: cell-based, human; details: Homo sapiens; C32, MTT, 72 h, mean ± SD
# Experimental: as §1, §2, §3, §4
# HT29 = assay: NCI-60 screen, Colon Cancer HT29; format: cell-based, human; details: HT29, 10^−5 M one dose
# SW620 = assay: NCI-60 screen, Colon Cancer SW620; format: cell-based, human; details: SW620, 10^−5 M one dose
# SF-295 = assay: NCI-60 screen, CNS Cancer SF-295; format: cell-based, human; details: SF-295, 10^−5 M one dose
# KM12 = assay: NCI-60 screen, Colon Cancer KM12; format: cell-based, human; details: KM12, 10^−5 M one dose
# SNB-19 = assay: NCI-60 screen, CNS Cancer SNB-19; format: cell-based, human; details: SNB-19, 10^−5 M one dose
# HL-60(TB) = assay: NCI-60 screen, Leukemia HL-60(TB); format: cell-based, human; details: 10^−5 M one dose
# [1] = test system: A375, C32, DU145, MCF-7/WT, CHO-K1 and HaCaT cell lines; assay: MTT cell viability assay, all six cell lines; format: cell-based; details: mean over the six cell lines; read-out: Mean A: the mean IC50 for the given compound
# Experimental: as §1, §2, §3, §4
# NCI/ADR-RES = assay: NCI-60 screen, Ovarian Cancer NCI/ADR-RES; format: cell-based, human; details: 10^−5 M one dose
# HOP-92 = assay: NCI-60 screen, Non-Small Cell Lung Cancer HOP-92; format: cell-based, human; details: HOP-92, 10^−5 M one dose
# IGROV1 = assay: NCI-60 screen, Ovarian Cancer IGROV1; format: cell-based; details: IGROV1, 10^−5 M one dose
# UACC-62 = assay: NCI-60 screen, Melanoma UACC-62; format: cell-based, human; details: UACC-62, 10^−5 M one dose
# A375 = assay: MTT cell viability assay, A375; format: cell-based, human; details: Homo sapiens, A-375, 72 h, A375, MTT, mean ± SD
# Experimental: as §1, §2, §3, §4
# HCT-116 = assay: NCI-60 screen, Colon Cancer HCT-116; format: cell-based, human; details: HCT-116, 10^−5 M one dose
# A549/ATCC = assay: NCI-60 screen, Non-Small Cell Lung Cancer A549/ATCC; format: cell-based, human; details: 10^−5 M one dose
# NCI-H522 = assay: NCI-60 screen, Non-Small Cell Lung Cancer NCI-H522; format: cell-based, human; details: NCI-H522, 10^−5 M one dose
# OVCAR-5 = assay: NCI-60 screen, Ovarian Cancer OVCAR-5; format: cell-based, human; details: OVCAR-5, 10^−5 M one dose
# NCI-H23 = assay: NCI-60 screen, Non-Small Cell Lung Cancer NCI-H23; format: cell-based, human; details: NCI-H23, 10^−5 M one dose
# HOP-62 = assay: NCI-60 screen, Non-Small Cell Lung Cancer HOP-62; format: cell-based; details: HOP-62, 10^−5 M one dose
Compound,Growth of Cells (%) (K-562),IC50 (MCF-7/WT) [µM],IC50 (C32) [µM],Growth of Cells (%) (HT29),Growth of Cells (%) (SW620),Growth of Cells (%) (SF-295),Growth of Cells (%) (KM12),Growth of Cells (%) (SNB-19),Growth of Cells (%) (HL-60(TB)),IC50 [1] [µM],Growth of Cells (%) (NCI/ADR-RES),Growth of Cells (%) (HOP-92),Growth of Cells (%) (IGROV1),Growth of Cells (%) (UACC-62),IC50 (A375) [µM],Growth of Cells (%) (HCT-116),Growth of Cells (%) (A549/ATCC),Growth of Cells (%) (NCI-H522),Growth of Cells (%) (OVCAR-5),Growth of Cells (%) (NCI-H23),also measured
"O=c1[nH]c(C(F)(F)F)nc2c1sc(=S)n2-c1ccccc1 [Compound 2b, 3-phenyl-2-thioxo-5-(trifluoromethyl)-2,3-dihydro[1, 3]thiazolo[4,5-d]pyrimidin-7(6H)-one]",115.47,557 ± 22.9,496 ± 20.4,100.96,95.09,116.63,100.96,102.20,149.39,468,25.77,97.54,−5.14,109.52,367 ± 15.1,102.27,103.88,90.35,101.99,112.30,–
"CCNc1nc(C(F)(F)F)nc2c1sc(=S)n2-c1ccccc1 [Compound 4b, 7-(ethylamino)-3-phenyl-5-(trifluoromethyl)[1, 3]thiazolo[4,5-d]pyrimidine-2(3H)-thione]",102.59,686 ± 29.3,356 ± 15.2,88.76,106.24,94.05,89.17,106.58,98.91,476,92.88,–,101.57,93.86,524 ± 22.3,94.34,74.36,70.40,112.27,93.44,Growth of Cells (%) (HOP-62): 86.06%
Fc1ccc(CNc2nc(C(F)(F)F)nc3c2sc(=S)n3-c2ccccc2)cc1 [Compound 4c],107.45,568 ± 24.8,485 ± 21.2,103.27,114.74,91.10,113.23,106.48,93.41,485,114.00,106.96,109.98,105.93,507 ± 22.1,111.01,98.32,90.73,102.72,–,Growth of Cells (%) (HOP-62): 92.88%
